Reference: ChEMBL document CHEMBL3885861, “Open TG-GATES”

Species: Rattus norvegicus
Experiment: Open TG-GATES - Regimen: Daily Repeat
Assay type: toxicity, organism-based, Sprague-Dawley
Set-up: regimen Daily Repeat, gender Male, age 6 weeks
Conditions: in vivo, po, 300 mg/kg, route gavage, dose level High; for APTT / Bas / Eos / Fbg / Hb / Ht / Lym / MCH / MCHC / MCV / Mono / Neu / PT / Plat / RBC / Ret / WBC: tissue Blood; for KIDNEY_L / KIDNEY_R / KIDNEY_TOTAL: tissue Kidney; for LIVER: tissue Liver; for A/G / ALP / ALT / AST / BUN / CRE / Ca / Cl / DBIL / GLC / IP / K / LDH / Na / PL / RALB / TBIL / TC / TG / TP / gamma-GTP: tissue Plasma

C[C@]12CCC(=O)C=C1CC[C@@H]1[C@@H]2CC[C@@]2(C)[C@H]1CC[C@]2(C)O [METHYLTESTOSTERONE]
TERMINAL_BW (72 h, time 3 day): 233.2 g
APTT (72 h, time 3 day): 15.7 s
Bas (72 h, time 3 day): 0%
Eos (72 h, time 3 day): 1%
Fbg (72 h, time 3 day): 295.4 mg/dL
Hb (72 h, time 3 day): 13.8 g/dL
Ht (72 h, time 3 day): 39.9%
Lym (72 h, time 3 day): 74.8%
MCH (72 h, time 3 day): 21.8 pg
MCHC (72 h, time 3 day): 34.6%
MCV (72 h, time 3 day): 63.2 fL
Mono (72 h, time 3 day): 2.8%
Neu (72 h, time 3 day): 21%
PT (72 h, time 3 day): 13.4 s
Plat (72 h, time 3 day): 115.4 x10_4/uL
RBC (72 h, time 3 day): 630.6 x10_4/ul
Ret (72 h, time 3 day): 6.1%
WBC (72 h, time 3 day): 71.4 x10_2/uL
KIDNEY_L (72 h, time 3 day): 1.1 g
KIDNEY_R (72 h, time 3 day): 1.1 g
KIDNEY_TOTAL (72 h, time 3 day): 2.2 g
LIVER (72 h, time 3 day): 12.3 g
A/G (72 h, time 3 day): 0.9
ALP (72 h, time 3 day): 1988.4 IU/L
ALT (72 h, time 3 day): 52.4 IU/L
AST (72 h, time 3 day): 72 IU/L
BUN (72 h, time 3 day): 14.4 mg/dL
CRE (72 h, time 3 day): 0.2 mg/dL
Ca (72 h, time 3 day): 11 mg/dL
Cl (72 h, time 3 day): 106.2 meq/L
DBIL (72 h, time 3 day): 0.028 mg/dL
GLC (72 h, time 3 day): 179 mg/dL
IP (72 h, time 3 day): 8.4 mg/dL
K (72 h, time 3 day): 4.2 meq/L
LDH (72 h, time 3 day): 129.6 IU/L
Na (72 h, time 3 day): 143.2 meq/L
PL (72 h, time 3 day): 110.4 mg/dL
RALB (72 h, time 3 day): 2.8 g/dL
TBIL (72 h, time 3 day): 0.024 mg/dL
TC (72 h, time 3 day): 37.8 mg/dL
TG (72 h, time 3 day): 189 mg/dL
TP (72 h, time 3 day): 5.8 g/dL
gamma-GTP (72 h, time 3 day): 1.2 IU/L
TERMINAL_BW ([…], time 7 day): 255 g
TERMINAL_BW ([…], time 14 day): 299.6 g
TERMINAL_BW ([…], time 28 day): 358.4 g
APTT ([…], time 7 day): 19.5 s
Bas ([…], time 7 day): 0%
Eos ([…], time 7 day): 0.2%
Fbg ([…], time 7 day): 345.8 mg/dL
Hb ([…], time 7 day): 14 g/dL
Ht ([…], time 7 day): 40.4%
Lym ([…], time 7 day): 80%
MCH ([…], time 7 day): 21.6 pg
MCHC ([…], time 7 day): 34.6%
MCV ([…], time 7 day): 62.2 fL
Mono ([…], time 7 day): 3.2%
Neu ([…], time 7 day): 15.4%
PT ([…], time 7 day): 13.3 s
Plat ([…], time 7 day): 121 x10_4/uL
RBC ([…], time 7 day): 650.2 x10_4/ul
Ret ([…], time 7 day): 5.3%
WBC ([…], time 7 day): 65.9 x10_2/uL
APTT ([…], time 14 day): 22.8 s
Bas ([…], time 14 day): 0%
Eos ([…], time 14 day): 0%
Fbg ([…], time 14 day): 327.8 mg/dL
Hb ([…], time 14 day): 15.3 g/dL
Ht ([…], time 14 day): 43.7%
Lym ([…], time 14 day): 70.4%
MCH ([…], time 14 day): 20.5 pg
MCHC ([…], time 14 day): 34.9%
MCV ([…], time 14 day): 58.8 fL
Mono ([…], time 14 day): 3.4%
Neu ([…], time 14 day): 25.2%
PT ([…], time 14 day): 13.5 s
Plat ([…], time 14 day): 118.5 x10_4/uL
RBC ([…], time 14 day): 744.4 x10_4/ul
Ret ([…], time 14 day): 3.2%
WBC ([…], time 14 day): 93.6 x10_2/uL
APTT ([…], time 28 day): 19.9 s
Bas ([…], time 28 day): 0%
Eos ([…], time 28 day): 1%
Fbg ([…], time 28 day): 325.4 mg/dL
Hb ([…], time 28 day): 15.8 g/dL
Ht ([…], time 28 day): 44.3%
Lym ([…], time 28 day): 77.8%
MCH ([…], time 28 day): 19.3 pg
MCHC ([…], time 28 day): 35.7%
MCV ([…], time 28 day): 54.1 fL
Mono ([…], time 28 day): 3.2%
Neu ([…], time 28 day): 17.4%
PT ([…], time 28 day): 13.6 s
Plat ([…], time 28 day): 111.9 x10_4/uL
RBC ([…], time 28 day): 819 x10_4/ul
Ret ([…], time 28 day): 2.6%
WBC ([…], time 28 day): 81.2 x10_2/uL
KIDNEY_L ([…], time 7 day): 1.2 g
KIDNEY_R ([…], time 7 day): 1.2 g
KIDNEY_TOTAL ([…], time 7 day): 2.4 g
KIDNEY_L ([…], time 14 day): 1.4 g
KIDNEY_R ([…], time 14 day): 1.4 g
KIDNEY_TOTAL ([…], time 14 day): 2.8 g
KIDNEY_L ([…], time 28 day): 1.8 g
KIDNEY_R ([…], time 28 day): 1.8 g
KIDNEY_TOTAL ([…], time 28 day): 3.7 g
LIVER ([…], time 7 day): 13.5 g
LIVER ([…], time 14 day): 15.3 g
LIVER ([…], time 28 day): 18.6 g
A/G ([…], time 7 day): 0.9
ALP ([…], time 7 day): 1693.8 IU/L
ALT ([…], time 7 day): 44.4 IU/L
AST ([…], time 7 day): 63.4 IU/L
BUN ([…], time 7 day): 13.8 mg/dL
CRE ([…], time 7 day): 0.2 mg/dL
Ca ([…], time 7 day): 10.9 mg/dL
Cl ([…], time 7 day): 105 meq/L
DBIL ([…], time 7 day): 0.028 mg/dL
GLC ([…], time 7 day): 182.4 mg/dL
IP ([…], time 7 day): 7.6 mg/dL
K ([…], time 7 day): 3.8 meq/L
LDH ([…], time 7 day): 89.4 IU/L
Na ([…], time 7 day): 143.4 meq/L
PL ([…], time 7 day): 117.2 mg/dL
RALB ([…], time 7 day): 2.9 g/dL
TBIL ([…], time 7 day): 0.03 mg/dL
TC ([…], time 7 day): 38.6 mg/dL
TG ([…], time 7 day): 228.8 mg/dL
TP ([…], time 7 day): 6.2 g/dL
gamma-GTP ([…], time 7 day): 1 IU/L
A/G ([…], time 14 day): 0.8
ALP ([…], time 14 day): 1180 IU/L
ALT ([…], time 14 day): 62 IU/L
AST ([…], time 14 day): 69.8 IU/L
BUN ([…], time 14 day): 13 mg/dL
CRE ([…], time 14 day): 0.2 mg/dL
Ca ([…], time 14 day): 10.4 mg/dL
Cl ([…], time 14 day): 105 meq/L
DBIL ([…], time 14 day): 0.022 mg/dL
GLC ([…], time 14 day): 172.6 mg/dL
IP ([…], time 14 day): 7.8 mg/dL
K ([…], time 14 day): 3.9 meq/L
LDH ([…], time 14 day): 128.8 IU/L
Na ([…], time 14 day): 143 meq/L
PL ([…], time 14 day): 139.2 mg/dL
RALB ([…], time 14 day): 2.8 g/dL
TBIL ([…], time 14 day): 0.03 mg/dL
TC ([…], time 14 day): 44 mg/dL
TG ([…], time 14 day): 191.2 mg/dL
TP ([…], time 14 day): 6.2 g/dL
gamma-GTP ([…], time 14 day): 1.8 IU/L
A/G ([…], time 28 day): 0.8
ALP ([…], time 28 day): 1072 IU/L
ALT ([…], time 28 day): 49.8 IU/L
AST ([…], time 28 day): 60.2 IU/L
BUN ([…], time 28 day): 12.4 mg/dL
CRE ([…], time 28 day): 0.2 mg/dL
Ca ([…], time 28 day): 10.9 mg/dL
Cl ([…], time 28 day): 101.6 meq/L
DBIL ([…], time 28 day): 0.026 mg/dL
GLC ([…], time 28 day): 172 mg/dL
IP ([…], time 28 day): 6.5 mg/dL
K ([…], time 28 day): 3.4 meq/L
LDH ([…], time 28 day): 100 IU/L
Na ([…], time 28 day): 144.2 meq/L
PL ([…], time 28 day): 118.6 mg/dL
RALB ([…], time 28 day): 2.9 g/dL
TBIL ([…], time 28 day): 0.032 mg/dL
TC ([…], time 28 day): 36.2 mg/dL
TG ([…], time 28 day): 202.2 mg/dL
TP ([…], time 28 day): 6.3 g/dL
gamma-GTP ([…], time 28 day): 2.6 IU/L
